Series [1] has as its system MX1 tumor xenografts. Put plainly: MX1 tumor xenografts in nude mice. It counts as in vivo. Conditions: Sixty three mg/kg. As for the experimental part: Dysidiolide inhibited the growth of MX1 tumor xenografts in nude mice. Sixty three mg/kg dysidiolide inhibited (A) tumor growth by 70% while (B) animal weight (and indication of overall toxicity) remained higher than 90% of controls.
Therapeutic Effects of Dysidiolide and Taxol in Nude Mice bearing MX-1. MX-1 cell 50 μg was implanted s.c. on day 0. Every other day i.v. treatments were given on day 3,5,7,9 and 11. The average tumor volume of control group on day 3, 7, 9, 11 and 13 were 62, 75, 113, 155 and 264 mm^3, respectively. Solvents: Dysidiolide [20-40 μl DMSO+100 μl (Cremophor: EtOH=1:1)+Saline] Taxol [Clinical use (Cremophor+EtOH=1:1)+Saline].

The test system of series [2] is PC3, DU145 and MCF7 cells. Put plainly: cell cycle distribution by DNA content histograms (FACS). It counts as cell-based, human. Here is the method: Cells with 2n to 4n DNA content were distributed on a DNA histogram and estimations for the percentages of cells in G1(2n), S(2n<X<4N) and G2/M (4n) were calculated using Becton-Dickinson FACS analysis software.
A 20 mM stock solution of dysidiolide was prepared in dimethylsulfoxide (DMSO) and a pilot experiment was carried out to measure the effects of the drug on the viability (Trypan blue exclusion) and flow cytometric parameters of four human cancer cell lines: the prostate lines TSU-Pr1, PC3 and DU145, and the breast line, MCF7. Cultures were treated with 0, 2, 10 and 50 μM dysidiolide for 24 hr. Dysidiolide was cytotoxic to the four lines as evidenced by the loss of Trypan blue exclusion capability and by the appearance of sub-G1 fraction on flow cytometric (FACS) analysis (FIGS. 3 and 4A-D). […] (At 50 μM dysidiolide, the level of cell death was too high in TSU-Pr1 cells to fit a valid histogram (FIG. 5A)). These cell cycle changes are consistent with arrest prior to completion of the replicative (S) phase, or with cell death occurring preferentially in cells with a 4n DNA content (G2/M population).

For series [3], the system named is TSU-Pr1 cells. The series can be described thus: BrdU pulse-label FACS of TSU-Pr1 cells. It counts as cell-based, human. Conditions: 3.33 μM, 24 hours. Here is the method:
TSU-Pr1 cells were treated for 24 hours with either DMSO or 3.33 μM dysidiolide. Cells were pulse-labeled for 30 min with bromodeoxyuridine (BrdU) and analyzed by FACS. The R@ window contains BRDU-positive, S-phase cells. Consistent with the proposed inhibitory effect of dysidiolide on the positive cell cycle regulator Cdc25. the drug inhibited the activity of cyclin-dependent kinases (Cdk). Cdk4, 6 and 2 were immunoprecipitated from DMSO- or drug-treated TSU-Pr1 cell cultures. Activity was examined in vitro kinase assays. The activity of the three Cdks was inhibited in drug-treated cells, as early as 3 hours in drug.

For series [4], the system named is MCF7 human breast cancer cells. The series can be described thus: BrdU pulse-chase S phase progression. The format is cell-based. Here is the method: Effect of 10 μM dysidiolide on cell cycle progression of S-phase MCF7 cells (BrdU-positive). MCF7 cultures were pulse-labeled with 10 μM BrdU for 30 min. Cultures were washed extensively with phosphate-buffered saline (PBS) solution and fresh media was added, supplemented or not with 10 μM dysidiolide. The final DMSO concentration of control and drug cultures was 0.05%. Cells were harvested at different times after the BrdU pulse and cells were stained for DNA content with propidium iodide, and for BrdU, with a monoclonal anti-BrdU antibody coupled to fluorescein. The progression of this group of cells through the cell cycle was followed by dual wavelength flow cytometry.
Effect of 50 μM dysidiolide on cell cycle progression of S-phase MCF7 cells. MCF7 cells were pulse-labeled for 30 min with BrdU, and chased for 24 hr in the presence or absence of 50 μM dysidiolide. BrdU versus DNA content plots are shown for cell cultures harvested just after the pulse (time 0, “0”), and after the chase with (“24+”) or without drug (“24−”)
To further analyze the cell cycle effects induced by dysidiolide, the effects of the drug on S phase progression were tested. For this purpose, a subset of cells was pulse-labeled with the thymidine analog, 5-bromodeoxyuridine (BrdU) for 30 min, and chased in the presence or absence of dysidiolide. The progression of this group of cells through the cell cycle was followed by flow cytometry, by analyzing the intensity of BrdU labeling and DNA content at two different wavelengths: red for propidium iodide stain (DNA content) and green for the detection of anti-BrdU antibodies coupled to fluorescein (Becton-Dickinson Immunocytometric Systems, San Jose, Calif.). The first experiment was conducted on MCF7 human breast cancer cells chased for varying time periods after a 30 min BrdU pulse, with or without 10 μM dysidiolide. After a 24 hr chase in the presence of the drug, fewer cells had reached G1 (FIG. 6). However, the effect was modest in intensity (approximately 45% less cells reached G1 in treated samples, compared with untreated controls) […]

Molecules are shown by their SMILES.

Here are results for one molecule from patent US6482851B1, “Synthesis of dysidiolide and uses thereof” (Sloan-Kettering Institute for Cancer Research, priority 1998, dated 2002).

Take `C=C(C)CCC[C@@]1(C)CCC[C@H]2C1=CC[C@H](C)[C@]2(C)C[C@H](O)C1=CC(=O)O[C@@H]1O` (racemic) [dysidiolide]: in series [1], the “animal weight (indication of overall toxicity)” value is on record as “higher than 90 % of controls”. This molecule also displayed a tumor growth inhibition in series [1] of 70%. For the same molecule, the cell cycle distribution result in series [2] (MCF7 breast cancer cell line) is “loss of the G2/M peak and accumulation of cells in G1”; in series [2] (PC3, DU145 and MCF7 cells at higher doses of drug, 24 hr), “loss of a G2/M (4 n peak)”. Also, the cell cycle arrest result in series [3] is recorded as “induces G1 arrest”. For the same molecule, the “less cells reached G1 compared with untreated controls” value in series [4] (10 μM, 24 hr chase after 30 min BrdU pulse) was “approximately 45%”. The “cell cycle progression of BrdU-positive cells onto the next G1 phase” value in series [4] (50 μM, 24 hr chase) was “prevented cell cycle progression”. Moreover, in series [4] (50 μM, 24 hr chase, BrdU-positive cells), the “cells with intermediate DNA content (S phase), forced fit” value is recorded as “approximately 90%”.
